The results in this text go back to patent US20250049937A1, “NOVEL AURISTATIN ANALOGS AND IMMUNOCONJUGATES THEREOF” (priority 2021, published 2025).

The pIC50 is the negative decadic logarithm of the IC50, by convention in mol/L.

Molecules are shown by their SMILES. pIC50: −log10 of the molar value.

The assay deals with HCC1954 breast ductal carcinoma cells. The assay is described as follows: HCC1954 5-day cell viability assay (Cell Titer Glo 2.0). It is filed as cell-based. The following applies: Homo sapiens, HCC1954, 120 h, read-out: IC50 (HCC1954 5-Day Assay). As to the method:
(§1) *Biological assay protocol: HCC1954 breast ductal carcinoma or SK-BR-3 cells (ATCC, Manassas, VA, USA) were seeded into 384-well white-walled culture plates and allowed to adhere for 2-4 hours. Cells were then treated with test articles at least in duplicate by addition of 5-fold serially diluted test articles prepared at 2× final concentration and incubated at 37° C. for 120 hours. Cell viability following treatment was determined by Cell Titer Glo 2.0 Assay (Promega, Madison, WI, USA) and normalized to non-treated controls. Dose-response relationships were analyzed using GraphPad Prism (La Jolla, CA, USA), and IC50 values were derived from non-linear regression analyses using a 4-parameter logistic equation
as §1, with “HCC1954” for “*Biological assay protocol: HCC1954”, “carcinoma” for “carcinoma or SK-BR-3”, “treated” for “treated with test articles”, “equation.” for “equation”
A general note: Cellular ATP, detected with luciferase, serves as a proxy for viable cell number.

`CC[C@H](C)[C@@H]([C@@H](CC(=O)N1CCC[C@H]1[C@H](OC)[C@@H](C)C(=O)N[C@H](CC#N)Cc1ccc(N)cc1)OC)N(C)C(=O)[C@@H](NC(=O)[C@H](C(C)C)N(C)C)C(C)C` [Compound 1, (S)—N-((3R,4S,5S)-1-((S)-2-((1R,2R)-3-(((S)-1-(4-aminophenyl)-3-cyanopropan-2-yl)amino)-1-methoxy-2-methyl-3-oxopropyl)pyrrolidin-1-yl)-3-methoxy-5-methyl-1-oxoheptan-4-yl)-2-((S)-2-(dimethylamino)-3-methylbutanamido)-N,3-dimethylbutanamide]: the pIC50 was 9.51. To `CC[C@H](C)[C@@H]([C@@H](CC(=O)N1CCC[C@H]1[C@H](OC)[C@@H](C)C(=O)N[C@H](CC#N)Cc1cccc(N)c1)OC)N(C)C(=O)[C@@H](NC(=O)[C@H](C(C)C)N(C)C)C(C)C` [Compound 2, (S)—N-((3R,4S,5S)-1-((S)-2-((1R,2R)-3-(((S)-1-(3-aminophenyl)-3-cyanopropan-2-yl)amino)-1-methoxy-2-methyl-3-oxopropyl)pyrrolidin-1-yl)-3-methoxy-5-methyl-1-oxoheptan-4-yl)-2-((S)-2-(dimethylamino)-3-methylbutanamido)-N,3-dimethylbutanamide] belongs 9.43. For `CC[C@H](C)[C@@H]([C@@H](CC(=O)N1CCC[C@H]1[C@H](OC)[C@@H](C)C(=O)N[C@H](CC#N)Cc1cccc(N)c1)OC)N(C)C(=O)[C@@H](NC(=O)[C@@H](C(C)C)N(C)C)C(C)C` [Compound 3, (S)—N-((3R,4S,5S)-1-((S)-2-((1R,2R)-3-(((S)-1-(3-aminophenyl)-3-cyanopropan-2-yl)amino)-1-methoxy-2-methyl-3-oxopropyl)pyrrolidin-1-yl)-3-methoxy-5-methyl-1-oxoheptan-4-yl)-2-((R)-2-(dimethylamino)-3-methylbutanamido)-N,3-dimethylbutanamide] the value was 9.92. For `CC[C@H](C)[C@@H]([C@@H](CC(=O)N1CCC[C@H]1[C@H](OC)[C@@H](C)C(=O)N[C@H](CC#N)Cc1cccc(N)c1)OC)N(C)C(=O)[C@@H](NC(=O)[C@H](C)N(C)C)C(C)C` [Compound 4, (S)—N-((3R,4S,5S)-1-((S)-2-((1R,2R)-3-(((S)-1-(3-aminophenyl)-3-cyanopropan-2-yl)amino)-1-methoxy-2-methyl-3-oxopropyl)pyrrolidin-1-yl)-3-methoxy-5-methyl-1-oxoheptan-4-yl)-2-((S)-2-(dimethylamino)propanamido)-N,3-dimethylbutanamide] the value was 9.31. Regarding `CC[C@H](C)[C@@H]([C@@H](CC(=O)N1CCC[C@H]1[C@H](OC)[C@@H](C)C(=O)N[C@H](CC#N)Cc1cccc(N)c1)OC)N(C)C(=O)[C@@H](NC(=O)[C@@H](C)N(C)C)C(C)C` [Compound 5, (S)—N-((3R,4S,5S)-1-((S)-2-((1R,2R)-3-(((S)-1-(3-aminophenyl)-3-cyanopropan-2-yl)amino)-1-methoxy-2-methyl-3-oxopropyl)pyrrolidin-1-yl)-3-methoxy-5-methyl-1-oxoheptan-4-yl)-2-((R)-2-(dimethylamino)propanamido)-N,3-dimethylbutanamide], the pIC50 was 9.43. To `CC[C@H](C)[C@@H]([C@@H](CC(=O)N1CCC[C@H]1[C@H](OC)[C@@H](C)C(=O)N[C@H](CC#N)Cc1cccc(N)c1)OC)N(C)C(=O)[C@@H](NC(=O)CN(C)C)C(C)C` [Compound 6, (S)—N-((3R,4S,5S)-1-((S)-2-((1R,2R)-3-(((S)-1-(3-aminophenyl)-3-cyanopropan-2-yl)amino)-1-methoxy-2-methyl-3-oxopropyl)pyrrolidin-1-yl)-3-methoxy-5-methyl-1-oxoheptan-4-yl)-2-(2-(dimethylamino)acetamido)-N,3-dimethylbutanamide] belongs 9.11.

For the compound `CC[C@H](C)[C@@H]([C@@H](CC(=O)N1CCC[C@H]1[C@H](OC)[C@@H](C)C(=O)N(C)[C@H](CC#N)Cc1cccc(N)c1)OC)N(C)C(=O)[C@@H](NC(=O)[C@H](C(C)C)N(C)C)C(C)C` [Compound 7, (S)—N-((3R,4S,5S)-1-((S)-2-((1R,2R)-3-(((S)-1-(3-aminophenyl)-3-cyanopropan-2-yl)(methyl)amino)-1-methoxy-2-methyl-3-oxopropyl)pyrrolidin-1-yl)-3-methoxy-5-methyl-1-oxoheptan-4-yl)-2-((S)-2-(dimethylamino)-3-methylbutanamido)-N,3-dimethylbutanamide], the negative-log IC50 (pIC50) was 10.15. As for `CC[C@H](C)[C@@H]([C@@H](CC(=O)N1CCC[C@H]1[C@H](OC)[C@@H](C)C(=O)N(C)[C@H](CC#N)Cc1cccc(N)c1)OC)N(C)C(=O)[C@@H](NC(=O)[C@H](C)N(C)C)C(C)C` [Compound 8, (S)—N-((3R,4S,5S)-1-((S)-2-((1R,2R)-3-(((S)-1-(3-aminophenyl)-3-cyanopropan-2-yl)(methyl)amino)-1-methoxy-2-methyl-3-oxopropyl)pyrrolidin-1-yl)-3-methoxy-5-methyl-1-oxoheptan-4-yl)-2-((S)-2-(dimethylamino)propanamido)-N,3-dimethylbutanamide], the pIC50 was 9.66. For `CC[C@H](C)[C@@H]([C@@H](CC(=O)N1CCC[C@H]1[C@H](OC)[C@@H](C)C(=O)N(C)[C@H](CC#N)Cc1cccc(N)c1)OC)N(C)C(=O)[C@@H](NC(=O)[C@@H](C)N(C)C)C(C)C` [Compound 9, (S)—N-((3R,4S,5S)-1-((S)-2-((1R,2R)-3-(((S)-1-(3-aminophenyl)-3-cyanopropan-2-yl)(methyl)amino)-1-methoxy-2-methyl-3-oxopropyl)pyrrolidin-1-yl)-3-methoxy-5-methyl-1-oxoheptan-4-yl)-2-((R)-2-(dimethylamino)propanamido)-N,3-dimethylbutanamide], the negative-log IC50 (pIC50) was 9.24.
